Columns and labels:
Experiment in all cases: KINOMEscan binding assay
[1] = target: T1, ABL1(Y253F)-non phosphorylated (Homo sapiens, UniProt P00519, Y253F); conditions: read-out: % Retention on Solid Support
T1 construct: purchased DiscoveRx KINOMEscan
Summary of the method: (§1)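 Each kinase in a >400-member collection was probed for i-CDK9 binding via an active site-directed competition platform; test levels 1 and 10 µM.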

ABL1-nonphosphorylated = target: T2, ABL1-nonphosphorylated (Homo sapiens, UniProt P00519); conditions: read-out: % Retention on Solid Support
T2 construct: purchased DiscoveRx KINOMEscan
Summary of the method: as §1

ADCK3 = target: T3, ADCK3 (Homo sapiens, UniProt Q8NI60); conditions: read-out: % Retention on Solid Support
T3 construct: purchased DiscoveRx KINOMEscan
Summary of the method: as §1

CLK4 = target: T4, CLK4 (Homo sapiens, UniProt Q9HAZ1); conditions: read-out: % Retention on Solid Support
T4 construct: purchased DiscoveRx KINOMEscan
Summary of the method: as §1

CSNK1G3 = target: T5, CSNK1G3 (Homo sapiens, UniProt Q9Y6M4)
T5 construct: purchased DiscoveRx KINOMEscan
Summary of the method: as §1

EGFR(L858R) = target: T6, EGFR(L858R) (Homo sapiens, UniProt P00533, L858R)
T6 construct: purchased DiscoveRx KINOMEscan
Summary of the method: as §1

EPHA8 = target: T7, EPHA8 (Homo sapiens, UniProt P29322); conditions: read-out: % Retention on Solid Support
T7 construct: purchased DiscoveRx KINOMEscan
Summary of the method: as §1

FGR = target: T8, FGR (Homo sapiens, UniProt P09769); conditions: read-out: % Retention on Solid Support
T8 construct: purchased DiscoveRx KINOMEscan
Summary of the method: as §1

HPK1 = target: T9, HPK1 (Homo sapiens, UniProt Q92918); conditions: read-out: % Retention on Solid Support
T9 construct: purchased DiscoveRx KINOMEscan
Summary of the method: as §1

JNK3 = target: T10, JNK3 (Homo sapiens, UniProt P53779)
T10 construct: purchased DiscoveRx KINOMEscan
Summary of the method: as §1

LRRK2 = target: T11, LRRK2 (Homo sapiens, UniProt Q5S007); conditions: 1 µM i-CDK9; read-out: % Retention on Solid Support
T11 construct: purchased DiscoveRx KINOMEscan
Summary of the method: as §1

LTK = target: T12, LTK (Homo sapiens, UniProt P29376); conditions: read-out: % Retention on Solid Support
T12 construct: purchased DiscoveRx KINOMEscan
Summary of the method: as §1

LZK = target: T13, LZK (Homo sapiens, UniProt O43283)
T13 construct: purchased DiscoveRx KINOMEscan
T13 sequence (O43283 whole entry): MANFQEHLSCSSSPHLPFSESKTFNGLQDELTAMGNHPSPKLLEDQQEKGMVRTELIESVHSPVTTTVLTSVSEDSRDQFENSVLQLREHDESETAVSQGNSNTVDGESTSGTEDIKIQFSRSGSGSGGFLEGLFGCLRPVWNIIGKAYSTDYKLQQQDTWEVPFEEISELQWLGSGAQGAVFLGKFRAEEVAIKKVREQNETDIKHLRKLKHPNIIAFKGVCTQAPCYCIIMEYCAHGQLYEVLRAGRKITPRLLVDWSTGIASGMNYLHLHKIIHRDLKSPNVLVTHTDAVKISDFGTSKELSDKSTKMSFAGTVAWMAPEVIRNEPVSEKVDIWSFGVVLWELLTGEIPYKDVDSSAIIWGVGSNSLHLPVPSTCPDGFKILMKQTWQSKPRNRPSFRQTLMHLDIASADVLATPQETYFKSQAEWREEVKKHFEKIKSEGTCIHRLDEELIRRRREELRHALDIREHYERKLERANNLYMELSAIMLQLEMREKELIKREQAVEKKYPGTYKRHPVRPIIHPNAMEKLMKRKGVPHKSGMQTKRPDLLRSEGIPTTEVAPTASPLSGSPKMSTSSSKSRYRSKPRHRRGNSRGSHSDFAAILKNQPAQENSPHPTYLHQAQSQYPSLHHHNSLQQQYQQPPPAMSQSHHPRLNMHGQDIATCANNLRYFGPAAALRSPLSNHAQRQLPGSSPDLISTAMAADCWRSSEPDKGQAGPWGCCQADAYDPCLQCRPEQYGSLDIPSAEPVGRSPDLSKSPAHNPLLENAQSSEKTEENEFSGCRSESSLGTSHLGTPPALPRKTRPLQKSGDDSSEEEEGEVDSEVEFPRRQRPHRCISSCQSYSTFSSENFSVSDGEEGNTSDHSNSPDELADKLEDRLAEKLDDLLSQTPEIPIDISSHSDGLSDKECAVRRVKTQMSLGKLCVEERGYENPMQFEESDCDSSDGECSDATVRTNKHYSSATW
Summary of the method: as §1

MKNK1 = target: T14, MKNK1 (Homo sapiens, UniProt Q9BUB5); conditions: read-out: % Retention on Solid Support
T14 construct: purchased DiscoveRx KINOMEscan
Summary of the method: as §1

MST1 = target: T15, MST1 (Homo sapiens, UniProt Q13043)
T15 construct: purchased DiscoveRx KINOMEscan
Summary of the method: as §1

MYLK4 = target: T16, MYLK4 (Homo sapiens, UniProt Q86YV6); conditions: read-out: % Retention on Solid Support
T16 construct: purchased DiscoveRx KINOMEscan
Summary of the method: as §1

PFCDPK1(P.falciparum) = target: T17, PFCDPK1(P.falciparum) (Plasmodium falciparum, UniProt P62344); conditions: 1 µM i-CDK9; read-out: % Retention on Solid Support
T17 construct: purchased DiscoveRx KINOMEscan
Summary of the method: as §1

PHKG1 = target: T18, PHKG1 (Homo sapiens, UniProt Q16816); conditions: read-out: % Retention on Solid Support
T18 construct: purchased DiscoveRx KINOMEscan
Summary of the method: as §1

PIK3C2G = target: T19, PIK3C2G (Homo sapiens, UniProt O75747); conditions: read-out: % Retention on Solid Support
T19 construct: purchased DiscoveRx KINOMEscan
Summary of the method: as §1

PIK3CA(E545A) = target: T20, PIK3CA(E545A) (Homo sapiens, UniProt P42336, E545A); conditions: read-out: % Retention on Solid Support
T20 construct: purchased DiscoveRx KINOMEscan
Summary of the method: as §1

PKAC-alpha = target: T21, PKAC-alpha (Homo sapiens, UniProt P17612); conditions: read-out: % Retention on Solid Support
T21 construct: purchased DiscoveRx KINOMEscan
Summary of the method: as §1

PLK3 = target: T22, PLK3 (Homo sapiens, UniProt Q9H4B4); conditions: read-out: % Retention on Solid Support
T22 construct: purchased DiscoveRx KINOMEscan
T22 sequence (Q9H4B4 whole entry): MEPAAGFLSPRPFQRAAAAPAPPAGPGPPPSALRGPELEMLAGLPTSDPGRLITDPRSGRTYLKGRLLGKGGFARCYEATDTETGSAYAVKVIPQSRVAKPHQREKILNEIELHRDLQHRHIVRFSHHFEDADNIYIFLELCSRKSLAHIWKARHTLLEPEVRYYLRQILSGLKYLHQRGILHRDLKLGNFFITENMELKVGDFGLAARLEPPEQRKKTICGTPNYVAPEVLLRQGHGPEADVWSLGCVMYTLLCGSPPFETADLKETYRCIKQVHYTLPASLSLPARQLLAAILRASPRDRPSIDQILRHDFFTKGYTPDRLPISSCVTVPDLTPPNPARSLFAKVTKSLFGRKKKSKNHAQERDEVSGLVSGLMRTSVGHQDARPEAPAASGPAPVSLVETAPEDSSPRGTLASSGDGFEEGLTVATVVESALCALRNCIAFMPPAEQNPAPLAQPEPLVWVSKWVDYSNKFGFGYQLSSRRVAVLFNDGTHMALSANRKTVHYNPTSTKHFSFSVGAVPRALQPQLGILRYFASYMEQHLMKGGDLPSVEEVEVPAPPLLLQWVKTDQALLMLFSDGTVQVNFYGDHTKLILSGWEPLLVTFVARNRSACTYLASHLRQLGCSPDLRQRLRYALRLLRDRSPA
Summary of the method: as §1

PRKCE = target: T23, PRKCE (Homo sapiens, UniProt Q02156); conditions: read-out: % Retention on Solid Support
T23 construct: purchased DiscoveRx KINOMEscan
Summary of the method: as §1

PRKD1 = target: T24, PRKD1 (Homo sapiens, UniProt Q15139); conditions: read-out: % Retention on Solid Support
T24 construct: purchased DiscoveRx KINOMEscan
Summary of the method: as §1

PRKG2 = target: T25, PRKG2 (Homo sapiens, UniProt Q13237); conditions: read-out: % Retention on Solid Support
T25 construct: purchased DiscoveRx KINOMEscan
T25 sequence (Q13237 whole entry): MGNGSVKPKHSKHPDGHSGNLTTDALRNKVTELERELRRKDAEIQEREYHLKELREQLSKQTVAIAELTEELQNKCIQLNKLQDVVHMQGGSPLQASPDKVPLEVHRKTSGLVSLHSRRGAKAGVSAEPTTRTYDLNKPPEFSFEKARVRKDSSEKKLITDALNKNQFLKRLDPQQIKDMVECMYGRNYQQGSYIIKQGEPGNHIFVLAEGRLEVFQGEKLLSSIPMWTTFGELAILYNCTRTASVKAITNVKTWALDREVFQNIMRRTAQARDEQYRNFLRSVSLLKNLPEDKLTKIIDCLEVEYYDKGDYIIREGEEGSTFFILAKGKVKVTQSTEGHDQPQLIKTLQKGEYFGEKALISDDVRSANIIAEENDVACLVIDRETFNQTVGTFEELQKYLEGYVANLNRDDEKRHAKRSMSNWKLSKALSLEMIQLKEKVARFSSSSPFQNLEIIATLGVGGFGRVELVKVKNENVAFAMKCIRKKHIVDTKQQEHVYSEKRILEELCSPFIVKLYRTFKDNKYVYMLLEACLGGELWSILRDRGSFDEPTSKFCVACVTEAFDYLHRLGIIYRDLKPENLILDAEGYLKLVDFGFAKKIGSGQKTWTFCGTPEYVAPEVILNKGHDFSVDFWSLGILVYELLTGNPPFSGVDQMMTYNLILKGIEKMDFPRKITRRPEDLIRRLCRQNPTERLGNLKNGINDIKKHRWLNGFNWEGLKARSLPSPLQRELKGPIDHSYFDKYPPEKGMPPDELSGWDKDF
Summary of the method: as §1

TAOK1 = target: T26, TAOK1 (Homo sapiens, UniProt Q7L7X3); conditions: read-out: % Retention on Solid Support
T26 construct: purchased DiscoveRx KINOMEscan
T26 sequence (Q7L7X3 whole entry): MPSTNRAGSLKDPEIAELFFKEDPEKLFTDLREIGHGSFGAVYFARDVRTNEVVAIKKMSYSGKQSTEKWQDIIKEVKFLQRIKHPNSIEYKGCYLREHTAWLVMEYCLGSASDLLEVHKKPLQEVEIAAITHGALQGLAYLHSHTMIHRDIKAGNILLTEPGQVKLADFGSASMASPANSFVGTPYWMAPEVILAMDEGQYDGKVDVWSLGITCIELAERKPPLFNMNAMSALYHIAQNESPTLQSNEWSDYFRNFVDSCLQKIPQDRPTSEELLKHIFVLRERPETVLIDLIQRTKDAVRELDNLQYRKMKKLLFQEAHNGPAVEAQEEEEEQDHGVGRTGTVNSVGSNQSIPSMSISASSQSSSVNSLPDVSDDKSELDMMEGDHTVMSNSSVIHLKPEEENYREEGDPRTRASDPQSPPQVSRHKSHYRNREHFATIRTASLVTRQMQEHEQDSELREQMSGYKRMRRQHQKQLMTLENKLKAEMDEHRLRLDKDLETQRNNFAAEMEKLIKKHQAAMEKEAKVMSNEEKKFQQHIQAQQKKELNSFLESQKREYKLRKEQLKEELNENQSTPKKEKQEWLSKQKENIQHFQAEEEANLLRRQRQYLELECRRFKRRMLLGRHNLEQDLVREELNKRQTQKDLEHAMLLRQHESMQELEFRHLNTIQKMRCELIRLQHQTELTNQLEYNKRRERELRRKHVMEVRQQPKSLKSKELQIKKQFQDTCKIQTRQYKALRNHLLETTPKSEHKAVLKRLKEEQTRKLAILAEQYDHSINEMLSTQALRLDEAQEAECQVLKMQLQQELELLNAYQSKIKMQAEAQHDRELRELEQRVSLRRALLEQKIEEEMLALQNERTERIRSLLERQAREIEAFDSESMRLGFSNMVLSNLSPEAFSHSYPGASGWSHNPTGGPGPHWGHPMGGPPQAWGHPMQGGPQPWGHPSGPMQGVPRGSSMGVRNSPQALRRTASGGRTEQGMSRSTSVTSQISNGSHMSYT
Summary of the method: as §1

TNIK = target: T27, TNIK (Homo sapiens, UniProt Q9UKE5); conditions: read-out: % Retention on Solid Support
T27 construct: purchased DiscoveRx KINOMEscan
T27 sequence (Q9UKE5 whole entry): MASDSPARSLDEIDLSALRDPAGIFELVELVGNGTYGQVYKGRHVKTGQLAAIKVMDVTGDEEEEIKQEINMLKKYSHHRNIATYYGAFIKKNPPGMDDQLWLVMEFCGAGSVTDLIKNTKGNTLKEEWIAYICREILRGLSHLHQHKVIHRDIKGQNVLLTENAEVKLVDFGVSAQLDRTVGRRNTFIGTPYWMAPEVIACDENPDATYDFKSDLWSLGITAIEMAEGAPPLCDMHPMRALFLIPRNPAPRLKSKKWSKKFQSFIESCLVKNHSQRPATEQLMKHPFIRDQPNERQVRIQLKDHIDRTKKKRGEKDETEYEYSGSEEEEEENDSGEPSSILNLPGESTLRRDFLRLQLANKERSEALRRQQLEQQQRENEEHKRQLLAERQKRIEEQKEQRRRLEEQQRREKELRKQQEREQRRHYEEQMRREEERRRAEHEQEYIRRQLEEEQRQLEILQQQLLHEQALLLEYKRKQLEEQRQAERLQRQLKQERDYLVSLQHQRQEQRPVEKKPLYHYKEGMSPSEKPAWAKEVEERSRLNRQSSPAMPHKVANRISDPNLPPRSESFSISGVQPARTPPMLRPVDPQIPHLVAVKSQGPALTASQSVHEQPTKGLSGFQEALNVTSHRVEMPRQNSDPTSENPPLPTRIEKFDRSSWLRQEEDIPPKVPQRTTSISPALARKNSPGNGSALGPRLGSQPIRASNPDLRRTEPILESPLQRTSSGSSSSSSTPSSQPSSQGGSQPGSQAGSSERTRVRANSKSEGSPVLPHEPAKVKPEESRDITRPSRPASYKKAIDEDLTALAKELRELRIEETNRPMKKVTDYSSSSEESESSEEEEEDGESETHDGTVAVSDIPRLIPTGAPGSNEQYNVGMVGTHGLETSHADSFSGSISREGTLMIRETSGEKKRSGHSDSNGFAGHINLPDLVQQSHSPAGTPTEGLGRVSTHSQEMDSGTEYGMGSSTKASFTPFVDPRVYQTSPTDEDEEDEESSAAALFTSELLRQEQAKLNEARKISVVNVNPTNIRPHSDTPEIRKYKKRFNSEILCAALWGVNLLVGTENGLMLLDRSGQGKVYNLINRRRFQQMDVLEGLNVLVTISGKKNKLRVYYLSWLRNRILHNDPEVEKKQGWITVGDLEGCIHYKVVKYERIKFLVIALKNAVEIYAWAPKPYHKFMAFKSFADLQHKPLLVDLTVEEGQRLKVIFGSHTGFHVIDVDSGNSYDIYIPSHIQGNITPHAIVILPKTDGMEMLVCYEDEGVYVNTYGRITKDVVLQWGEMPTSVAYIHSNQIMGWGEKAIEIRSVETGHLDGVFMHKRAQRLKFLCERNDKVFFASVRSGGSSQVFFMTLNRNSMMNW
Summary of the method: as §1

TYRO3 = target: T28, TYRO3 (Homo sapiens, UniProt Q06418); conditions: read-out: % Retention on Solid Support
T28 construct: purchased DiscoveRx KINOMEscan
Summary of the method: as §1

ULK1 = target: T29, ULK1 (Homo sapiens, UniProt O75385)
T29 construct: purchased DiscoveRx KINOMEscan
Summary of the method: as §1

## N[C@H]1CC[C@H](Nc2cc(-c3cccc(NCc4cccc(F)c4)n3)c(Cl)cn2)CC1 [i-CDK9, N2′-(trans-4-aminocyclohexyl)-5′-chloro-N6-(3-fluorobenzyl)-2,4′-bipyridine-2′,6-diamine]
[1]; 1 µM i-CDK9
  remaining binding at 1 µM: 84%
[1]; 10 µM i-CDK9
  remaining binding at 10 µM: 100%
ABL1-nonphosphorylated; 1 µM i-CDK9
  remaining binding at 1 µM: 81%
ABL1-nonphosphorylated; 10 µM i-CDK9
  remaining binding at 10 µM: 100%
ADCK3; 1 µM i-CDK9
  remaining binding at 1 µM: 100%
ADCK3; 10 µM i-CDK9
  remaining binding at 10 µM: 86%
CLK4; 1 µM i-CDK9
  remaining binding at 1 µM: 18%
CLK4; 10 µM i-CDK9
  remaining binding at 10 µM: 4.2%
CSNK1G3; 1 µM i-CDK9
  % Retention on Solid Support: 91%
CSNK1G3; 10 µM i-CDK9
  % Retention on Solid Support: 63%
EGFR(L858R); 1 µM i-CDK9
  % Retention on Solid Support: 35%
EGFR(L858R); 10 µM i-CDK9
  % Retention on Solid Support: 100%
EPHA8; 1 µM i-CDK9
  remaining binding at 1 µM: 100%
EPHA8; 10 µM i-CDK9
  remaining binding at 10 µM: 100%
FGR; 1 µM i-CDK9
  remaining binding at 1 µM: 100%
FGR; 10 µM i-CDK9
  remaining binding at 10 µM: 98%
HPK1; 1 µM i-CDK9
  remaining binding at 1 µM: 86%
HPK1; 10 µM i-CDK9
  remaining binding at 10 µM: 100%
JNK3; 1 µM i-CDK9
  % Retention on Solid Support: 94%
JNK3; 10 µM i-CDK9
  % Retention on Solid Support: 34%
LRRK2
  remaining binding at 1 µM: 100%
LTK; 1 µM i-CDK9
  remaining binding at 1 µM: 92%
LTK; 10 µM i-CDK9
  remaining binding at 10 µM: 100%
LZK; 1 µM i-CDK9
  % Retention on Solid Support: 100%
LZK; 10 µM i-CDK9
  % Retention on Solid Support: 100%
MKNK1; 1 µM i-CDK9
  remaining binding at 1 µM: 100%
MKNK1; 10 µM i-CDK9
  remaining binding at 10 µM: 100%
MST1; 1 µM i-CDK9
  % Retention on Solid Support: 100%
MST1; 10 µM i-CDK9
  % Retention on Solid Support: 100%
MYLK4; 1 µM i-CDK9
  remaining binding at 1 µM: 94%
MYLK4; 10 µM i-CDK9
  remaining binding at 10 µM: 73%
PFCDPK1(P.falciparum)
  remaining binding at 1 µM: 100%
PHKG1; 1 µM i-CDK9
  remaining binding at 1 µM: 100%
PHKG1; 10 µM i-CDK9
  remaining binding at 10 µM: 100%
PIK3C2G; 1 µM i-CDK9
  remaining binding at 1 µM: 100%
PIK3C2G; 10 µM i-CDK9
  remaining binding at 10 µM: 99%
PIK3CA(E545A); 1 µM i-CDK9
  remaining binding at 1 µM: 100%
PIK3CA(E545A); 10 µM i-CDK9
  remaining binding at 10 µM: 100%
PKAC-alpha; 1 µM i-CDK9
  remaining binding at 1 µM: 86%
PKAC-alpha; 10 µM i-CDK9
  remaining binding at 10 µM: 100%
PLK3; 1 µM i-CDK9
  remaining binding at 1 µM: 96%
PLK3; 10 µM i-CDK9
  remaining binding at 10 µM: 89%
PRKCE; 1 µM i-CDK9
  remaining binding at 1 µM: 100%
PRKCE; 10 µM i-CDK9
  remaining binding at 10 µM: 100%
PRKD1; 1 µM i-CDK9
  remaining binding at 1 µM: 55%
PRKD1; 10 µM i-CDK9
  remaining binding at 10 µM: 20%
PRKG2; 1 µM i-CDK9
  remaining binding at 1 µM: 100%
PRKG2; 10 µM i-CDK9
  remaining binding at 10 µM: 100%
TAOK1; 1 µM i-CDK9
  remaining binding at 1 µM: 51%
TAOK1; 10 µM i-CDK9
  remaining binding at 10 µM: 4%
TNIK; 1 µM i-CDK9
  remaining binding at 1 µM: 72%
TNIK; 10 µM i-CDK9
  remaining binding at 10 µM: 36%
TYRO3; 1 µM i-CDK9
  remaining binding at 1 µM: 71%
TYRO3; 10 µM i-CDK9
  remaining binding at 10 µM: 100%
ULK1; 1 µM i-CDK9
  % Retention on Solid Support: 80%
ULK1; 10 µM i-CDK9
  % Retention on Solid Support: 79%

— PMC4490784, “Compensatory induction of MYC expression by sustained CDK9 inhibition via a BRD4-dependent mechanism” (eLife, 2015)
